Source: patent publication US20100140166A1, “PROCESS FOR FERMENTIVE PREPARATION OF ALCOHOLS AND RECOVERY OF PRODUCT” (E.I. DU PONT DE NEMOURS AND COMPANY, priority 2008, published 2010)

Key:
[1] = system: Saccharomyces cerevisiae (W1362 20A); experiment: Glucose Uptake Index (GUI) of Saccharomyces cerevisiae culture in the presence of ionic liquid; type: cell-based; settings: 5% (v/v) ionic liquid, YPD medium, 30° C., 16 hours after addition; GUI of control without ionic liquid 79.0 (Ex. 1-5) or 100 (Ex. 6-8)
[2] = Extraction of isobutanol from an aqueous solution by ionic liquid (HPLC); type: physicochemical; settings: 3 mL aqueous solution about 31 g/L isobutanol, 5 vol % ionic liquid, overnight equilibration, control 436
Description: (§1) Ethanol and isobutanol concentration in the solution was measured using HPLC as described above following thorough mixing and overnight equilibration of the contents of the vial.

[3] = Extraction of ethanol from an aqueous solution by ionic liquid (HPLC); type: physicochemical; settings: 3 mL aqueous solution about 31 g/L ethanol, 5 vol % ionic liquid, overnight equilibration, control 655
Description: as §1

SMILES	GUI of Sample (Glucose Utilization Index in the presence of ionic liquid phase) [1]	mM isobutanol (in solution after equilibration) [2]	mM Ethanol (in solution after equilibration) [3]	mM isobutanol (in solution after equilibration) ([2]; listed as [MeDMEEAP] [Tf2N])	mM Ethanol (in solution after equilibration) ([3]; listed as [MeDMEEAP] [Tf2N])	mM isobutanol (in solution after equilibration) ([2]; listed as [MeDMEEAP] [HFPS])	mM Ethanol (in solution after equilibration) ([3]; listed as [MeDMEEAP] [HFPS])
CCC[N+](C)(C)CCN1C(=O)CCC1C.O=S(=O)([N-]S(=O)(=O)C(F)(F)F)C(F)(F)F (stereo not shown) [Example 6, 1-(N,N,N-dimethylpropylaminoethyl)-5-methyl pyrrolidone-2-one bis(trifluoromethane)sulfonamide]	100	387 mM	–	–	–	–	–
COCC[N+](C)(C)CCN1C(=O)CCC1C (stereo not shown) [Example 4, 1-(N,N,N-dimethyl(methylethoxy)aminoethyl)-5-methylpyrrolidin-2-one hexafluoropropanesulfonate]	21.9	423 mM	645 mM	–	–	–	–
CC1CCC(=O)N1CC[N+](C)(C)CCO.O=S(=O)([N-]S(=O)(=O)C(F)(F)F)C(F)(F)F (stereo not shown) [Example 8, 1-(N,N,N-dimethyl(hydroxyethyl)aminoethyl)-5-methyl pyrrolidone-2-one bis(trifluoromethane)sulfonamide]	89.3	417 mM	–	–	–	–	–
CCOCC[N+](C)(C)CCN1C(=O)CCC1C (stereo not shown) [Example 3, 1-(N,N,N-dimethyl(ethylethoxy)aminoethyl)-5-methyl-pyrrolidine-2-one bis(trifluoromethane)sulfonamide]	80.4	–	–	398 mM	637 mM	–	–
COCC[N+](C)(C)CCN1C(=O)CCC1C.O=S(=O)([N-]S(=O)(=O)C(F)(F)F)C(F)(F)F (stereo not shown) [Example 7, 1-(N,N,N-dimethyl(methylethoxy)aminoethyl)-5-methyl pyrrolidone-2-one bis(trifluoromethane)sulfonamide]	100	389 mM	643 mM	–	–	–	–
CCOCC[N+](C)(C)CCN1C(=O)CCC1C (stereo not shown) [Example 2, 1-(N,N,N-dimethyl(ethylethoxy)aminoethyl)-5-methyl-pyrrolidine-2-one hexafluoropropanesulfonate]	34.0	–	–	–	–	422 mM	656 mM
